# In paper PMC10077450 (ACS Omega, 2023):
# “Also recorded” adds a separate entry of the source. Marks after values point to notes of the source that are not given here.
# Legend:
# α-glucosidase = α-glucosidase (Saccharomyces cerevisiae, UniProt P53341); conditions: for activity against α-glucosidase enzyme (in words): compared with acarbose
# [1] = biological target: butyryl cholinesterase (BChE) (Homo sapiens, UniProt P06276); test: butyryl cholinesterase inhibition assay; assay type: biochemical; conditions: for inhibition at 500 µM: read-out: BChE inhibition (%) at 0.5 mM; for activity against BChE enzyme (in words): compared with eserine
# Sequence of butyryl cholinesterase (BChE) (P06276 29-602, species assumed): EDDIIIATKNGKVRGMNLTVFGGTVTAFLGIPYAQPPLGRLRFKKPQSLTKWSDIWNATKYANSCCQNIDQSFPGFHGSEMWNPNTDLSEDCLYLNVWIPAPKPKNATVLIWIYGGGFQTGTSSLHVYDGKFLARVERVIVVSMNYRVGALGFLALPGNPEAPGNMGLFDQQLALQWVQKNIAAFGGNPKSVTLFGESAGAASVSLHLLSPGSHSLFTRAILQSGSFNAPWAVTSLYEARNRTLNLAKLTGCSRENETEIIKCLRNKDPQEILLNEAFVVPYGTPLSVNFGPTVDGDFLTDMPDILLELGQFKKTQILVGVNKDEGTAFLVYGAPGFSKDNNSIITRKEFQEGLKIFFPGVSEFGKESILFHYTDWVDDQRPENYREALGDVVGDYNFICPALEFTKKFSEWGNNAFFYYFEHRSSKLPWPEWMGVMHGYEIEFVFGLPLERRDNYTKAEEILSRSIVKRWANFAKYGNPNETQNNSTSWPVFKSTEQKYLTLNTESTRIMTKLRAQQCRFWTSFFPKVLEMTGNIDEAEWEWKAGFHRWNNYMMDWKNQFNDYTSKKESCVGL
# Sequence of α-glucosidase (P53341 whole entry): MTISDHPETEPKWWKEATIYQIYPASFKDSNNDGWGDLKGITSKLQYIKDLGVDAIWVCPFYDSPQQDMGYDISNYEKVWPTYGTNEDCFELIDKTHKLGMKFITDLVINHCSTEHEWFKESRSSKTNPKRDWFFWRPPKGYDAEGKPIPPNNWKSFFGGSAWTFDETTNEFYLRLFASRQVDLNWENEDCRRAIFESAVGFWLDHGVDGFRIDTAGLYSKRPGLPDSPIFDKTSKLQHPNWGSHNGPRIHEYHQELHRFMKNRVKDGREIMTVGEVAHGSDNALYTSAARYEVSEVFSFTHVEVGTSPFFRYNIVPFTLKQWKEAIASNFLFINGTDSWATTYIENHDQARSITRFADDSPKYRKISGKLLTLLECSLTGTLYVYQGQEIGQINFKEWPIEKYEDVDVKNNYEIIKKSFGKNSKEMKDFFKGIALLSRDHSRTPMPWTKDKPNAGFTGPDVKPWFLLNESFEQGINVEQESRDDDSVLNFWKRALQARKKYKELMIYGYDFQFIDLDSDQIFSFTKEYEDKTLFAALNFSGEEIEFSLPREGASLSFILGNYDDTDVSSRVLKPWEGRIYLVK
Structure (SMILES),activity against α-glucosidase enzyme (in words) (α-glucosidase),inhibition at 500 µM [1] [%],IC50 [1] [µM],activity against BChE enzyme (in words) [1],"α-glucosidase inhibition (%) at 0.5 mM (α-glucosidase; 0.5 mM, mean ± SEM, triplicate)"
"CCc1ccccc1NC(=O)CSc1nnc(C2CCCN(S(=O)(=O)c3ccccc3)C2)o1 (stereo not shown) [7k, N-(2-Ethylphenyl)-2-{5-[1-(phenylsulfonyl)piperidin-3-yl]-1,3,4-oxadiazol-2-ylthio}acetamide]",least activity,44.24 ± 0.32,,,
"O=C(CSc1nnc(C2CCCN(S(=O)(=O)c3ccccc3)C2)o1)NC1CCCCC1 (stereo not shown) [7p, N-Cyclohexyl-2-{5-[1-(phenylsulfonyl)piperidin-3-yl]-1,3,4-oxadiazol-2-ylthio}acetamide]",least activity,26.5 ± 0.39,,,
"CCc1ccc(NC(=O)CSc2nnc(C3CCCN(S(=O)(=O)c4ccccc4)C3)o2)cc1 (stereo not shown) [7l, N-(4-Ethylphenyl)-2-{5-[1-(phenylsulfonyl)piperidin-3-yl]-1,3,4-oxadiazol-2-ylthio}acetamide]",,93.71 ± 0.28,274.6 ± 0.13,least active; also recorded: BChE inhibitors,
"O=C(CSc1nnc(C2CCCN(S(=O)(=O)c3ccccc3)C2)o1)NCc1ccccc1 (stereo not shown) [7r, N-Benzyl-2-{5-[1-(phenylsulfonyl)piperidin-3-yl]-1,3,4-oxadiazol-2-ylthio}acetamide]",least activity,37.7 ± 0.48,,,
"C[C@H]1O[C@H](O[C@H]2[C@H](O)[C@@H](O)[C@@H](O[C@H]3[C@H](O)[C@@H](O)C(O)O[C@@H]3CO)O[C@@H]2CO)[C@H](O)[C@@H](O)[C@@H]1N[C@H]1C=C(CO)[C@@H](O)[C@H](O)[C@H]1O (stereo partly shown) [acarbose, reference compound]",,,,,92.23±0.14^a %
"COc1ccc(Cl)cc1NC(=O)CSc1nnc(C2CCCN(S(=O)(=O)c3ccccc3)C2)o1 (stereo not shown) [7i, N-(5-Chloro-2-methoxyphenyl)-2-{5-[1-(phenylsulfonyl)piperidin-3-yl]-1,3,4-oxadiazol-2-ylthio}acetamide]",second most active,38.81 ± 0.17,,,
"Cc1cccc(C)c1NC(=O)CSc1nnc(C2CCCN(S(=O)(=O)c3ccccc3)C2)o1 (stereo not shown) [7d, N-(2,6-Dimethylphenyl)-2-{5-[1-(phenylsulfonyl)piperidin-3-yl]-1,3,4-oxadiazol-2-ylthio}acetamide]",least activity,48.51 ± 0.15,,,
"Cc1ccc(NC(=O)CSc2nnc(C3CCCN(S(=O)(=O)c4ccccc4)C3)o2)c(C)c1 (stereo not shown) [7b, N-(2,4-Dimethylphenyl)-2-{5-[1-(phenylsulfonyl)piperidin-3-yl]-1,3,4-oxadiazol-2-ylthio}acetamide]",,76.51 ± 0.44,283.3 ± 0.17,least active; also recorded: BChE inhibitors,
"Cc1cccc(NC(=O)CSc2nnc(C3CCCN(S(=O)(=O)c4ccccc4)C3)o2)c1C (stereo not shown) [7a, N-(2,3-Dimethylphenyl)-2-{5-[1-(phenylsulfonyl)piperidin-3-yl]-1,3,4-oxadiazol-2-ylthio}acetamide]",,75.32 ± 0.35,284.5 ± 0.13,least active; also recorded: BChE inhibitors,
"CCc1cccc(C)c1NC(=O)CSc1nnc(C2CCCN(S(=O)(=O)c3ccccc3)C2)o1 (stereo not shown) [7o, N-(2-Ethyl-6-methylphenyl)-2-{5-[1-(phenylsulfonyl)piperidin-3-yl]-1,3,4-oxadiazol-2-ylthio}acetamide]",,38.31 ± 0.29,,,
"Cc1ccc(NC(=O)CSc2nnc(C3CCCN(S(=O)(=O)c4ccccc4)C3)o2)cc1 (stereo not shown) [7g, 2-{5-[1-(Phenylsulfonyl)piperidin-3-yl]-1,3,4-oxadiazol-2-ylthio}-N-p-tolylacetamide]",,46.75 ± 0.18,,,
"Cc1ccc(C)c(NC(=O)CSc2nnc(C3CCCN(S(=O)(=O)c4ccccc4)C3)o2)c1 (stereo not shown) [7c, N-(2,5-Dimethylphenyl)-2-{5-[1-(phenylsulfonyl)piperidin-3-yl]-1,3,4-oxadiazol-2-ylthio}acetamide]",,40.76 ± 0.27,,,
"Cc1cccc([N+](=O)[O-])c1NC(=O)CSc1nnc(C2CCCN(S(=O)(=O)c3ccccc3)C2)o1 (stereo not shown) [7s, N-(2-Methyl-6-nitrophenyl)-2-{5-[1-(phenylsulfonyl)piperidin-3-yl]-1,3,4-oxadiazol-2-ylthio}acetamide]",,67.19 ± 0.39,123.3 ± 0.15,moderately high inhibition potential,
"O=C(CSc1nnc(C2CCCN(S(=O)(=O)c3ccccc3)C2)o1)NCCc1ccccc1 (stereo not shown) [7j, N-Phenethyl-2-{5-[1-(phenylsulfonyl)piperidin-3-yl]-1,3,4-oxadiazol-2-ylthio}acetamide]",,97.93 ± 0.38,12.15 ± 0.09,highest inhibition potential; also recorded: most active,
"COc1ccccc1NC(=O)CSc1nnc(C2CCCN(S(=O)(=O)c3ccccc3)C2)o1 (stereo not shown) [7q, N-(2-Methoxyphenyl)-2-{5-[1-(phenylsulfonyl)piperidin-3-yl]-1,3,4-oxadiazol-2-ylthio}acetamide]",,36.32 ± 0.16,,,
"Cc1cc(C)cc(NC(=O)CSc2nnc(C3CCCN(S(=O)(=O)c4ccccc4)C3)o2)c1 (stereo not shown) [7e, N-(3,5-Dimethylphenyl)-2-{5-[1-(phenylsulfonyl)piperidin-3-yl]-1,3,4-oxadiazol-2-ylthio}acetamide]",most active; also recorded: comparable activity to that of reference,66.82 ± 0.32,375.4 ± 0.12,least active; also recorded: BChE inhibitors,
"CCOc1ccc(NC(=O)CSc2nnc(C3CCCN(S(=O)(=O)c4ccccc4)C3)o2)cc1 (stereo not shown) [7m, N-(4-Ethoxyphenyl)-2-{5-[1-(phenylsulfonyl)piperidin-3-yl]-1,3,4-oxadiazol-2-ylthio}acetamide]",,72.41 ± 0.17,328.1 ± 0.18,least active; also recorded: BChE inhibitors,
"COC(=O)c1ccccc1NC(=O)CSc1nnc(C2CCCN(S(=O)(=O)c3ccccc3)C2)o1 (stereo not shown) [7h, Methyl 2-(2-(5-(1-(Phenylsulfonyl)piperidin-3-yl)-1,3,4-oxadiazol-2-ylthio)acetamido)benzoate]",,35.52 ± 0.23,,,
"CCOc1ccccc1NC(=O)CSc1nnc(C2CCCN(S(=O)(=O)c3ccccc3)C2)o1 (stereo not shown) [7n, N-(2-Ethoxyphenyl)-2-{5-[1-(phenylsulfonyl)piperidin-3-yl]-1,3,4-oxadiazol-2-ylthio}acetamide]",,43.72 ± 0.15,,,
"Cc1ccccc1NC(=O)CSc1nnc(C2CCCN(S(=O)(=O)c3ccccc3)C2)o1 (stereo not shown) [7f, 2-{5-[1-(Phenylsulfonyl)piperidin-3-yl]-1,3,4-oxadiazol-2-ylthio}-N-o-tolylacetamide]",,47.23 ± 0.14,,,
